How the values were obtained:
[1] = Metabolic stability in mouse liver microsomes; type: in vitro ADME; conditions: for half-life at 2 μM: mouse liver microsomes 0.5 mg/mL, test compound 2 μM, sampling 0-60 min, read-out: Half life t1/2 (min) in mouse liver microsomes; for metabolic stability in the liver microsomes compared with non-deuterated control defactinib: mouse liver microsomes, result in words
Protocol: (§1) Step 1. The mother solution was prepared according to the component ratio in Table 1 below:
(§2) Step 2: Two experiments were carried out as follows:
(§3) A) Adding reduced coenzyme II (NADPH): 20 mg/mL liver microsomes (10 μL) and 10 mM NADPH (40 μL) were added into the incubation experiment. The final concentrations of liver microsomes and NADPH were 0.5 mg/mL and 1 mM, respectively.
(§4) B) Without NADPH: 20 mg/mL liver microsomes (10 μL) and high pure water (40 μL) were added into the incubation experiment. The final concentration of liver microsomes was 0.5 mg/mL.
(§5) Step 3: The reaction began after adding 200 μM positive control (4 μL) or test compound. The positive control was verapamil in this experiment. The final concentration of the test compound was 2 μM.
(§6) Step 4: At the time points 0 min, 15 min, 30 min, 45 min, and 60 min, 50 μL solution was sampled from each reaction solution. Acetonitrile (4× volumes of reaction solution) and IS (100 nM alprazolam, 200 nM labetalol, 200 nM caffeine, and 2 μM ketoprofen) were added to the reaction solution. The sample was centrifuged at 3220 g gravity for 40 min. 100 μL high pure water was added into 100 μL supernatant and analyzed by LC-MS/MS.
(§7) Step 5: Data analysis: the peak area was determined from the extracted ion chromatogram. The slope value k was determined by linear regression of the natural logarithm obtained from the curve between the residual percentage of parent drug and the incubation time.
(§8) In vitro half-life (In vitro t1/2) was determined by the slope value: in vitro t1/2=−([…]/k In vitro intrinsic clearance (in vitro CLint, in […]) was converted from in vitro half-life t1/2 (min) using the following equation (mean value of repeated determinations): […]
(§9) Scale up intrinsic clearance (Scale up CLint, in mL/min/kg) was converted from in vitro half-life t1/2 (min) using the following equation (mean value of repeated determinations): […]

[2] = Metabolic stability in rat liver microsomes; type: in vitro ADME; conditions: for half-life at 2 μM: rat liver microsomes 0.5 mg/mL, test compound 2 μM, sampling 0-60 min, read-out: Half life t1/2 (min) in rat liver microsomes; for metabolic stability in the liver microsomes compared with non-deuterated control defactinib: rat liver microsomes, result in words
Protocol: as §1, §2, §3, §4, §5, §6, §7, §8, §9

[3] = Metabolic stability in human liver microsomes; type: in vitro ADME; conditions: for half-life at 2 μM: human liver microsomes 0.5 mg/mL, test compound 2 μM, sampling 0-60 min, read-out: Half life t1/2 (min) in human liver microsomes; for metabolic stability in the liver microsomes compared with non-deuterated control defactinib: human liver microsomes, result in words
Protocol: as §1, §2, §3, §4, §5, §6, §7, §8, §9

[4] = Pharmacokinetic experiment in rats (PO, 10 mpk); type: in vivo; conditions: Sprague-Dawley (SD), rat, 10 mg/kg, male SD rats, PO by gavage, plasma; for AUC: read-out: Exposure dose AUC; for half-life: read-out: Half life t1/2 (converted); for Tmax: read-out: Peak hours tmax; for Cmax: read-out: Peak plasma concentration Cmax(ng/mL); for MRT inf: read-out: Retention time MRTinf
Protocol: Appropriate amount of drug (equivalent to 10 mg of the original drug) was accurately weighed, to which was first added 0.25 ml DMA to dissolve drug, and 0.5% CMC-Na was slowly added to 5 ml, then mixed well with ultrasonic and vortex. 0.2 ml final solution prepared was taken out and stored at −20° C. for concentration determination. Three healthy adult male SD rats (180-250 g) received drugs at 5 ml/kg by gavage after fasting overnight (free drinking water); 0.1 ml blood was collected from retroorbital venous plexus before administration and 0.5, 1, 2, 4, 6, 8, 12 and 24 h after administration, and plasma was separated by centrifugation at 4° C. for 5 min and stored at −20° C. for use. Then, LC/MS/MS method was used to determine the concentration of compounds in plasma.

Row | half-life at 2 μM [1] [min] | metabolic stability in the liver microsomes compared with non-deuterated control defactinib [1] | half-life at 2 μM [2] [min] | metabolic stability in the liver microsomes compared with non-deuterated control defactinib [2] | half-life at 2 μM [3] [min] | metabolic stability in the liver microsomes compared with non-deuterated control defactinib [3] | AUC [4] [ng·h/mL] | half-life [4] [h] | Tmax [4] [h] | Cmax [4] [ng/mL] | MRT inf [4] [h] | Compound
1 | 87 | significantly improved | 151 | significantly improved | 894 | significantly improved | 2840 | 1.74 | 0.67 | 1220 | 2.03 | [2H]C([2H])([2H])NC(=O)c1ccc(Nc2ncc(C(F)(F)F)c(NCc3nccnc3N(C)S(C)(=O)=O)n2)cc1 [Compound 1, N-(trideuteromethyl)-4-((4-(((3-(N-methylmethylsulfonyl)pyrazin-2-yl)methyl)amino)-5-(trifluoromethyl)pyrimidin-2-yl)amino)benzamide]
2 | 70 | – | 47 | slightly worse | 100 | slightly worse | – | – | – | – | – | [2H]C([2H])([2H])N(c1nccnc1CNc1nc(Nc2ccc(C(=O)NC)cc2)ncc1C(F)(F)F)S(C)(=O)=O [Compound 2, N-methyl-4-((4-(((3-(N-deuteromethylmethanesulfonamido)pyrazin-2-yl)methyl)amino)-5-(trifluoromethyl)pyrimidin-2-yl)amino)benzamide]
3 | 406 | significantly improved | 370 | significantly improved | 781 | significantly improved | 3740 | 2.46 | 1.67 | 971 | 3.35 | [2H]C([2H])([2H])NC(=O)c1ccc(Nc2ncc(C(F)(F)F)c(NCc3nccnc3N(C([2H])([2H])[2H])S(C)(=O)=O)n2)cc1 [Compound 3, N-(trideuteromethyl)-4-((4-(((3-(N-deuteromethylmethanesulfonamido)pyrazin-2-yl)methyl)amino)-5-(trifluoromethyl)pyrimidin-2-yl)amino)benzamide]
4 | 63 | – | 94 | – | 260 | – | 1650 | 1.46 | 0.67 | 643 | 2.4 | CNC(=O)c1ccc(Nc2ncc(C(F)(F)F)c(NCc3nccnc3N(C)S(C)(=O)=O)n2)cc1 [Defactinib, N-methyl-4-((4-(((3-(N-methylmethylsulfonyl)pyrazin-2-yl)methyl)amino)-5-(trifluoromethyl)pyrimidin-2-yl)amino)benzamide]

— US11891379B2, “Deuterated Defactinib compound and use thereof” (HINOVA PHARMACEUTICALS INC., priority 2018, dated 2024)
